In patent US7074824B2, “Pharmaceutical compositions containing beta-lapachone, or derivatives or analogs thereof, and methods of using same” (Arqule, Inc., priority 2001, dated 2006):
Read-outs that look alike come from different tables or passages of the source.

What was measured:
[1] = target: human DNA Topoisomerases II (Homo sapiens, UniProt P11388); details: cited from earlier work
[2] = system: RPMI 8226 multiple myeloma cells; assay type: in vivo
Method: Chemicals. β-lapachone was synthesized and dissolved in 40% hydroxypropyl β-cyclodextrin at a concentration of 10 mg/mL and kept at room temperature in a dark container. Hydroxypropyl β-cyclodextrin was dissolved in distilled water at a concentration of 10 mg/mL and kept at room temperature. […]®, a basement membrane matrix was purchased from Becton Dickinson Labware (BD Biosciences, Two Oak Park Drive, Bedford, Mass.) and was dissolved in Dulbecco's modified Eagle's medium with 50 μg/mL Gentamycin and kept frozen at −20° C. […]® is extracted from the Engelbreth-Holm-Swarm mouse tumor, a tumor rich in extracellular matrix proteins. The major matrix components are laminin, collagen IV, entactin, and heparan sulfate proteoglycan (perlecan); the matrix also contains growth factors, matrix metalloproteinases (MMPs [collagenases]), and plasminogen activators, without any inhibitors of metalloproteinases (TIMPs). The […] matrix is a solution at 4° C. and gels at room temperature to form a three-dimensional reconstituted basement membrane. This model system closely mimics the structure, composition, physical properties, and functional characteristics of the basement membrane in vivo and provides a physiologically relevant environment for studies of cell morphology, biochemical function, migration or invasion, and gene expression. The frozen […]® matrix was thawed overnight at 4° C. before use.
Cell Cultures. RPMI8226 cells (a human multiple myeloma cell line) were provided Dr. William Dalton (Lee Moffit Cancer Center, Tampa, Fla.). They were maintained by frequent passages in RPMI 1640 (Cellgro®, Mediatech Inc., Herndon, Va.) containing 10% Fetal Bovine serum (FBS) (GibcoBRL, Life Technologies, Grand Island, N.Y.) supplemented with 2×10^−3M L-Glutamine, 100 units/mL penicillin (Pen), and 100 μg/mL streptomycin (Cellgro®D, Mediatech Inc., Herndon, Va.) in 162 cm^2 cell culture flasks (Costar®, Corning Incorporated, Corning, N.Y.). The exponentially growing cell lines were CD138+, CD38+/CD45RA−, EBV negative, and pathogen free.
Mice. Forty male 6 week old Bg-Nu-Xid mice (deficient in T, B, and NK cells) were obtained from the FCRDC, Frederick, Bethesda, Md. and housed at the Redstone animal facility at DFCI. These mice have 3 separate mutations—Beige (Bg) autosomal recessive mutation associated with impaired chemotaxis and motility of macrophages & deficiency of NK cells; the nude (nu) autosomal recessive mutation associated with depletion of T cells due to thymic agenesis; and the X-linked immune defect (xid) which produces functional defects of B lymphocytes. The animals were raised in a barrier facility in cages with saw dust bedding and laminar air at 19–22° C. Rodent food and sterile drinking water were supplied ad libitum. The mice were quarantined to rule out development of any disease. One mouse died during transport, and 5 others were lost because of dehydration (n=2), probable infection (n=2) and excessive bleeding due to trauma (n=1). After 1 week, enrofloxacin (a quinolone antibiotic) was added in drinking water of all mice. All procedures involving animals were approved by and performed according to guidelines of the Institutional Animal Care and Use Committee of the Dana Farber Cancer Institute (DFCI).
Histologic Analysis. The mice were sacrificed when the tumor reached 20 mm in their largest diameter or they became moribund, as per the policy of the Animal Protocol Committee at Dana Farber Cancer Institute. […]

A549 = test: MTS growth inhibition assay; assay type: cell-based, human; details: Homo sapiens
Method: A2780 and A2780/CP (ovarian); MCF-7 (breast); HT-29 (colon); BxPC-3 (pancreas); and A549 (lung). The human tumor cell lines (purchased from ATCC, Rockville, Md.) were cultured at 37° C. […] Nova Tech, Grand Island, N.Y.) containing 10% fetal bovine serum (FBS, Nova Tech). Aliquots of cells were seeded into each well of 96-well microtiter plates at a final concentration of 10^4 cells/well and incubated for 24 h prior to exposure to test compounds. […] The MTS assay is a colorimetric assay based upon the ability of viable cells to convert MTS, a novel tetrazolium compound and electron-coupling reagent, to a colored formazan product that is soluble in cell culture medium. The cell concentration is then determined by measuring the absorbance of the formazan product at 490 nm. Growth inhibition, expressed as IC50, is calculated relative to vehicle-treated control cells.

human carcinoma cells = test: Colony formation assay of β-lapachone combined with Taxol®; assay type: cell-based; details: 4 h exposure, colonies scored after 10–20 days; ovarian, breast, prostate, melanoma, lung and pancreatic cell lines, FIG. 4
Method: In these studies, exponentially growing cells were seeded at 1,000 cells per well in six-well plates and allowed to attach for 48 h. β-lapachone and/or Taxol®, solubilized in DMSO, were added to the wells. Control wells were treated with equivalent volumes of DMSO. After 4 h cells were rinsed and fresh medium was added. Cultures were observed daily for 10–20 days and then were fixed and stained. Colonies of greater than 30 cells were scored as survivors.

Sequence of human DNA Topoisomerases II (P11388 whole entry): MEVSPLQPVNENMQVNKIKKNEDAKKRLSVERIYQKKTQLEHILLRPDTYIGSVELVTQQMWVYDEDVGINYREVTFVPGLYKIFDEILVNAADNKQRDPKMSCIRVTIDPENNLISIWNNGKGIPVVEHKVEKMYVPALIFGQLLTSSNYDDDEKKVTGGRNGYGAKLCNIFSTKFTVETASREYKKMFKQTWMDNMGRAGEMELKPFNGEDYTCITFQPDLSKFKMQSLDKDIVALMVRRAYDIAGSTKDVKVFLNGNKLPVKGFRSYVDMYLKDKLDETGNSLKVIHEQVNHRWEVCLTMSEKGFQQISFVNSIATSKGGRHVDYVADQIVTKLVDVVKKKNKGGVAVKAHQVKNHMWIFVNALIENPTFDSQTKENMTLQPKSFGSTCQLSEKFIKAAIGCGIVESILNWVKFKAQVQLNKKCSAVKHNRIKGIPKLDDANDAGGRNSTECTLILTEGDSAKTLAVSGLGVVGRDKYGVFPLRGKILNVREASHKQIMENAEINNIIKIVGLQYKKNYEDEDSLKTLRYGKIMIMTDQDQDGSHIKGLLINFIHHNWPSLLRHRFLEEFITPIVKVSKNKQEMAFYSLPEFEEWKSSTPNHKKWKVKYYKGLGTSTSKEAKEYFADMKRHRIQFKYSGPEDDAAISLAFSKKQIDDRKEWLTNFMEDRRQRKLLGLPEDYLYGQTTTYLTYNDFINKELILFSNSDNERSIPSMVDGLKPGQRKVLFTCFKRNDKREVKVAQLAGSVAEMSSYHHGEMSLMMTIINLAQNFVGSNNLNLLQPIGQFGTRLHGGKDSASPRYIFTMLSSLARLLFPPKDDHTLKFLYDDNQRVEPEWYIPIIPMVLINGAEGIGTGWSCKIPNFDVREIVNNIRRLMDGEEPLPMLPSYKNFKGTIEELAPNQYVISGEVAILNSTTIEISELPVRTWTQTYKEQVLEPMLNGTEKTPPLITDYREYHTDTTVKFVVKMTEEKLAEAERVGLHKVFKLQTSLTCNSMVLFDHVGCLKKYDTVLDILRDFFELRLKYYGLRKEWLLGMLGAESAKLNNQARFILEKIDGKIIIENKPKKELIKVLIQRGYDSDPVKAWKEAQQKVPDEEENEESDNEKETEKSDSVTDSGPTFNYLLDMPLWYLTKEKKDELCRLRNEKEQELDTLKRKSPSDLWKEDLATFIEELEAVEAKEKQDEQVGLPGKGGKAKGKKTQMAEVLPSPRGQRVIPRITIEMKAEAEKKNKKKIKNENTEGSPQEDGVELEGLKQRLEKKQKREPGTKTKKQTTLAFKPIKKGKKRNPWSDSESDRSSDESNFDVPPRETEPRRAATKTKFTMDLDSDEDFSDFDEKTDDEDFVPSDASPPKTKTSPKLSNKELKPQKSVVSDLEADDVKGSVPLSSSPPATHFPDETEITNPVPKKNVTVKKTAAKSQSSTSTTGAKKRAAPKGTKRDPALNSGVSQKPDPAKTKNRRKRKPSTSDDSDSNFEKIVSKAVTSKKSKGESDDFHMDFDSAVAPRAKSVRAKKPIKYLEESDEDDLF

In the case of `CC1(C)CCC2=C(O1)c1ccccc1C(=O)C2=O` [β-lapachone], the in vitro inhibition [1] is given as “potent in vitro inhibition”, the “tumor volume versus control group” value ([2]; 50 mg/kg i.p. every alternate day in 40% HPBCD, by day 11, p=0.007) is given as “statistically significant decrease in tumor volume” and the “survival compared to controls” value ([2]; day 5, 7, 9, 11, 13, 15 and 17, FIG. 16) is given as “survival was greater”. The “MM cell apoptosis in tumors (mean±SD)” value ([2]; histopathology, light microscopy, p=0.001 versus control) was 41.1%±12.7, the kidney histology ([2]; mouse, in vivo) was “mild tubular vacuolization” and the “microscopic toxicity on liver, heart, lung, brain, and spleen” value ([2]; mouse, in vivo) was “no microscopic evidence of any toxicity”. It also gave an IC50 (A549; A549, read-out: Growth inhibitory activity (50% effective concentration, IC50), A549 lung, Exp 1) of 4.48 µM, an IC50 (A549; A549, read-out: Growth inhibitory activity (50% effective concentration, IC50), A549 lung, Exp 2) of 4.73 µM and an IC50 (A549; A549, read-out: Growth inhibitory activity (50% effective concentration, IC50), A549 lung, Exp 3) of 18.7 µM. For the same compound, the IC50 (A549; A549, read-out: Growth inhibitory activity (50% effective concentration, IC50), A549 lung, Mean ± SE of 3 experiments) was 9.3 ± 4.69 µM and the “inhibition of cancer cell survival (colony formation)” value (human carcinoma cells) was “much less effective”.
